Reference: patent US12303570B2, “Compositions and methods for assessing eye vasculature” (MediBeacon Inc., priority 2015, dated 2025)
Structures can show the parent of a compound that is named as a salt.

Experiments:
[1] = UV/vis absorption and fluorescence of pyrazine dyes; assay type: physicochemical
[2] = cited from earlier work
serum protein = details: immediately upon intra-venous injection; cited from earlier work
[3] = 100 μM (Example 4 prints 100 μm)

| UV/vis λabs ([1]; 100 μM in PBS) [nm] | Fluorescence λem ([1]; 100 nM) [nm] | Fluorescence λex ([1]; 100 nM) [nm] | Structure (SMILES) | also measured |
| --- | --- | --- | --- | --- |
| 434 |  |  | Nc1nc(C(=O)N[C@H](CO)C(=O)O)c(N)nc1C(=O)N[C@H](CO)C(=O)O [Example 2, 3,6-diamino-N^2,N^5-bis(D-serine)-pyrazine-2,5-dicarboxamide] | light absorption maximum [1]: 445 nm; light emission maximum [1]: 560 nm; Fluorescence λem ([1]; concentration not given): 559 nm; Fluorescence λex ([1]; concentration not given): 449 nm |
| 438 | 560 | 438 | COCCOCCOCCOCCOCCOCCOCCOCCC(=O)NCCNC(=O)c1nc(N)c(C(=O)NCCNC(=O)CCOCCOCCOCCOCCOCCOCCOCCOC)nc1N [Example 10, 3,6-diamino-N^2,N^5-bis(26-oxo-2,5,8,11,14,17,20,23-octaoxa-27-azanonacosan-29-yl)pyrazine-2,5-dicarboxamide] |  |
| 394 |  |  | COCCN(CCOC)C(=O)c1nc(N)c(C(=O)N(CCOC)CCOC)nc1N [Example 4, 3,6-diamino-N^2,N^2,N^5,N^5-tetrakis(2-methoxyethyl) pyrazine-2,5-dicarboxamide] | Fluorescence λex [1, 3]: 394 nm; Fluorescence λem ([1]; 100 μm): 550 nm |
|  |  |  | O=C1OC2(c3ccc(O)cc3Oc3cc(O)ccc32)c2ccccc21 [Sodium fluorescein] | lipid solubility [2]: relatively high; converted to non-fluorescent serum protein bound molecule (serum protein): 93% |
|  |  |  | Nc1nc(C(=O)NCC(O)CO)c(N)nc1C(=O)NCC(O)CO (stereo not shown) [Example 5, 3,6-diamino-N^2,N^5-bis (2,3-dihydroxypropyl) pyrazine-2,5-dicarboxamide] | UV/vis λabs ([1]; 100 μM in H2O): 432 nm; Fluorescence λem ([1]; concentration not given): 558 nm; Fluorescence λex ([1]; concentration not given): 432 nm |
| 434 |  |  | COCCN(CCOC)C(=O)c1nc(N(CCOC)CCOC)c(C(=O)N(CCOC)CCOC)nc1N(CCOC)CCOC [Example 6] | Fluorescence λem ([1]; concentration not given): 559 nm; Fluorescence λex ([1]; concentration not given): 449 nm |
| 433 | 558 | 449 | Nc1nc(C(=O)N[C@H](CC(=O)O)C(=O)O)c(N)nc1C(=O)N[C@H](CC(=O)O)C(=O)O [Example 8, 3,6-diamino-N^2,N^5-bis(D-aspartate)-pyrazine-2,5-dicarboxamide] |  |
|  |  |  | Nc1nc(C(=O)N[C@@H](CO)C(=O)O)c(N)nc1C(=O)N[C@@H](CO)C(=O)O [Example 3, 3,6-diamino-N^2,N^5-bis(L-serine)-pyrazine-2,5-dicarboxamide] | light absorption maximum [1]: 445 nm; light emission maximum [1]: 560 nm |
|  |  |  | O=C1OC2(c3ccc(O)cc3Oc3cc(O[C@@H]4O[C@H](C(=O)O)[C@@H](O)[C@H](O)[C@H]4O)ccc32)c2ccccc21 (stereo partly shown) [fluorescein glucuronide] | fluorescent yield relative to fluorescein ([2]; metabolite versus parent): 5% |
| 435 | 562 | 449 | NCCNC(=O)c1nc(N)c(C(=O)NCCN)nc1N [Example 7, 3,6-diamino-N^2,N^5-bis(2-aminoethyl)pyrazine-2,5-dicarboxamide Bis TFA Salt] |  |
| 449 | 559 | 449 | COCCOCCOCCOCCOCCOCCOCCOCCOCCOCCOCCOCCC(=O)NCCNC(=O)c1nc(N)c(C(=O)NCCNC(=O)CCOCCOCCOCCOCCOCCOCCOCCOCCOCCOCCOCCOC)nc1N [Example 11, 3,6-diamino-N^2,N^5-bis(38-oxo-2,5,8,11,14,17,20,23,26,29,32,35-dodecaoxa-39-azahentetracontan-41-y) pyrazine-2,5-dicarboxamide] |  |
| 437 | 559 | 437 | COCCOCCOCCOCCC(=O)NCCNC(=O)c1nc(N)c(C(=O)NCCNC(=O)CCOCCOCCOCCOC)nc1N [Example 9, 3,6-diamino-N^2,N^5-bis(14-oxo-2,5,8,11-tetraoxa-15-azaheptadecan-17-yl) pyrazine-2,5-dicarboxamide] |  |
| 438 |  |  | COCCN(CCOC)c1nc(C(=O)N[C@H](CC(=O)O)C(=O)O)c(N2CCOCC2)nc1C#N [Example 13, (R)-2-(6-(bis(2-methoxyethyl)amino)-5-cyano-3-morpholinopyrazine-2-carboxamido)succinic Acid] | Fluorescence λem ([1]; 100 μM): 570 nm; Fluorescence λex [1, 3]: 449 nm |
